Experimental data as given in PMC11641755, “Features of Highly Homologous T-Cell Receptor Repertoire in the Immune Response to Mutations in Immunogenic Epitopes” (International Journal of Molecular Sciences, 2024).

Experiments:
[1] = system: NYN peptide-specific TCRs (NYN-1 to NYN-4 Jurkat E6-1 TPR cell lines); type: cell-based, human
[2] = system: TCR NYN-3 (Jurkat E6-1 TPR cells); type: cell-based, human
[3] = system: TCR NYN-2 (Jurkat E6-1 TPR cells); type: cell-based, human
TCR^NYN-I = conditions: ref 20 (Deng et al.); cited from earlier work
[4] = system: TCR NYN-1 (Jurkat E6-1 TPR cells); type: cell-based, human
[5] = system: TCR NYN-4 (Jurkat E6-1 TPR cells); experiment: Jurkat E6-1 TPR NFAT-eGFP reporter activation, transgenic TCR NYN-4, peptide-loaded K562-A*24:02; type: cell-based, human
TCR^NYN-II = conditions: ref 20 (Deng et al.); cited from earlier work

Sequence: NYNYMYRLF [L452M]
- effect of the mutation on the T-cell response / recognition (in words) [1]: did not affect the T-cell response

Sequence: NYDYLYRLF [N450D]
- effect of the mutation on the T-cell response / recognition (in words) [1]: did not affect the T-cell response
- effect of the mutation on response / affinity of NYN-3 (in words) [2]: increased the affinity
- effect of the mutation on response / affinity of NYN-2 (in words) [3]: increased the affinity

Sequence: NYNYLYRFF [L455F]
- effect of the mutation on the T-cell response / recognition (in words) [1]: did not affect the T-cell response
- reduction in the recognition compared to wild-type NYN ([3]; TCR NYN-2, from EC50 values): 23 fold

Sequence: NYKYLYRLF [N450K]
- recognition / response of TCR^NYN-I (in words) (TCR^NYN-I): remained preserved
- effect of the mutation on response / affinity of NYN-1 (in words) [4]: remained preserved
- reduction in the recognition compared to wild-type NYN ([5]; TCR NYN-4, from EC50 values): up to 400 fold
- recognition / response of TCR^NYN-II (in words) (TCR^NYN-II): remained preserved

Sequence: NYNYLYRLL [F456L]
- effect of the mutation on the T-cell response / recognition (in words) [1]: did not affect the T-cell response

Sequence: VYFLQSINF
- GFP expression compared to NYN ([4]; NYN-1 cell line, K562 loaded with 0.8 μM peptide): the same level of GFP expression as NYN
- GFP expression compared to NYN ([5]; NYN-4 cell line, K562 loaded with 0.8 μM peptide): 1.5 times lower
- recognition by all NYN-specific TCRs (cross-reactivity) ([1]; K562 loaded with 0.8 μM of each epitope): recognized
- GFP expression compared to NYN ([2]; NYN-3 cell line, K562 loaded with 0.8 μM peptide): 1.5 times lower
- GFP expression compared to NYN ([3]; NYN-2 cell line, K562 loaded with 0.8 μM peptide): the same level of GFP expression as NYN
